# Laboratory results taken from PubChem BioAssay AID624454 (Sanford-Burnham Center for Chemical Genomics, 2012).
# Several values for one entry are separate records, joined by “and”; a condition that tells them apart may be missing. Equal values may be shown once. Activity calls are given as the source filed them.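 Rule for the calls: active = EC50 of 10 µM or lower; inactive = the rest.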
# Tested on: H9c2 cardiomyocytes, 2-deoxyglucose injury, ATP luminescence, 2 h
# Assay: protection of cardiomyocytes from 2-deoxyglucose injury, SAR follow-up, H9c2 cells, ATP luminescence, set 2 (AID 624454)
row,SMILES,"EC50 (protection from 2-deoxyglucose ATP loss, increase)"
1,O=C1c2ccccc2N2C(=O)c3ccccc3C2N1c1cccc(Br)c1 (configuration not stated),> 79 µM (inactive)
2,COc1ccc2c(c1OC)C(=O)N1c3ccccc3C(=O)N(c3cccc(C(F)(F)F)c3)C21 (configuration not stated),> 79 µM (inactive)
3,COc1cc(-c2cc(C(=O)Nc3ccccc3)c3ccccc3n2)cc(OC)c1OC,> 79 µM (inactive)
4,COc1ccc2c(c1OC)C(=O)N1c3ccccc3C(=O)N(c3ccc(C)cc3)C21 (configuration not stated),29.1 µM (inactive)
5,COc1cccc(CNC(=O)c2cc(-c3ccc(OC)c(OC)c3)nc3ccccc23)c1,18.5 µM (inactive)
6,COc1ccc(NC(=O)c2cc(-c3cc(OC)c(OC)c(OC)c3)nc3ccccc23)cc1,> 79 µM (inactive)
7,CC(=O)c1cccc(NC(=O)c2cc(-c3ccccc3)nc3ccccc23)c1,33.5 µM (inactive)
8,COc1ccc(-c2cc(C(=O)Nc3cccc(C(C)=O)c3)c3ccccc3n2)cc1,> 79 µM (inactive)
9,COc1ccc2c(c1OC)C(=O)N1c3ccccc3C(=O)N(c3cccc(C)c3)C21 (configuration not stated),53.3 µM (inactive)
10,COc1ccc(-c2cc(C(=O)Nc3cccc(C(C)=O)c3)c3ccccc3n2)cc1OC,42.8 µM (inactive)
11,CCN(CC(=O)Nc1ccc(F)cc1)C(=O)c1cc(-c2cccs2)nn1-c1ccccc1,36.1 µM (inactive)
12,COc1ccc2c(c1OC)C(=O)N1c3ccccc3C(=O)N(c3ccc(Br)cc3)C21 (configuration not stated),11.3 µM (inactive)
13,COc1cccc(NC(=O)c2cc(-c3cc(OC)c(OC)c(OC)c3)nc3ccccc23)c1,> 79 µM (inactive)
14,COc1cccc(CNC(=O)c2cc(-c3cc(OC)c(OC)c(OC)c3)nc3ccccc23)c1,27.4 µM (inactive)
15,COc1cccc(N2C(=O)c3ccccc3N3C(=O)c4c(ccc(OC)c4OC)C23)c1 (configuration not stated),78 µM (inactive)
16,COc1cc(-c2cc(C(=O)Nc3cccc(C(C)=O)c3)c3ccccc3n2)cc(OC)c1OC,13.7 µM (inactive) and 14.8 µM (inactive)
17,CCN(CC(=O)Nc1ccc(OC)cc1)C(=O)c1cc(-c2cccs2)nn1-c1ccccc1,16.1 µM (inactive) and 20.5 µM (inactive)
18,CCN(CC(=O)Nc1ccc(OC)cc1)C(=O)c1cc(-c2cc(OC)c(OC)c(OC)c2)nc2ccccc12,29.8 µM (inactive)
19,COc1cc(-c2cc(C(=O)Nc3ccc(C(C)=O)cc3)c3ccccc3n2)cc(OC)c1OC,> 79 µM (inactive)

row,SMILES,"EC50 (protection from 2-deoxyglucose ATP loss, increase)"
1,COc1cccc(N2C(=O)c3ccccc3N3C(=O)c4ccccc4C23)c1 (configuration not stated),> 79 µM (inactive)
2,COc1ccc2c(c1OC)C(=O)N1c3ccccc3C(=O)N(c3cccc(Br)c3)C21 (configuration not stated),28.4 µM (inactive) and > 79 µM (inactive)
3,CCN(CC(=O)Nc1ccccc1)C(=O)c1cc(-c2cccs2)nn1-c1ccccc1,> 79 µM (inactive)
4,COc1cc(-c2cc(C(=O)Nc3cccc(Cl)c3)c3ccccc3n2)cc(OC)c1OC,> 79 µM (inactive)
5,COc1ccc(N2C(=O)c3ccccc3N3C(=O)c4c(ccc(OC)c4OC)C23)cc1 (configuration not stated),58.4 µM (inactive)
6,COc1ccc2c(c1OC)C(=O)N1c3ccccc3C(=O)N(c3ccccc3)C21 (configuration not stated),31.9 µM (inactive)
7,COc1cc(-c2cc(C(=O)Nc3cccc(C(F)(F)F)c3)c3ccccc3n2)cc(OC)c1OC,> 79 µM (inactive)
8,CCOC(=O)c1cccc(NC(=O)c2cc(-c3cc(OC)c(OC)c(OC)c3)nc3ccccc23)c1,> 79 µM (inactive)
9,COc1cc(-c2cc(C(=O)Nc3cccc(C(C)=O)c3)c3cc(Cl)ccc3n2)cc(OC)c1OC,> 79 µM (inactive)
10,COc1ccc2c(c1OC)C(=O)N1c3ccccc3C(=O)N(Cc3ccccc3Cl)C21 (configuration not stated),12.8 µM (inactive)
11,COc1cc(-c2cc(C(=O)Nc3cccc(F)c3)c3ccccc3n2)cc(OC)c1OC,> 79 µM (inactive)
12,COc1cc(-c2cc(C(=O)Nc3cccc(C)c3)c3ccccc3n2)cc(OC)c1OC,> 79 µM (inactive)
13,COc1ccc2c(c1OC)C(=O)N1c3ccccc3C(=O)N(c3ccc(C(C)(C)C)cc3)C21 (configuration not stated),> 79 µM (inactive)
14,COc1cccc(-c2cc(C(=O)Nc3cccc(C(C)=O)c3)c3ccccc3n2)c1,37.3 µM (inactive)
15,COc1ccc2c(c1OC)C(=O)N1c3ccccc3C(=O)N(c3cccc(Cl)c3)C21 (configuration not stated),45 µM (inactive)
16,COc1ccc2c(c1OC)C(=O)N1c3ccccc3C(=O)N(c3cccc(F)c3)C21 (configuration not stated),41.1 µM (inactive)
17,COc1ccc2c(c1OC)C(=O)N1c3ccccc3C(=O)N(Cc3cccc(Cl)c3)C21 (configuration not stated),37.9 µM (inactive)
18,O=C1c2ccccc2N2C(=O)c3ccccc3C2N1c1ccccc1 (configuration not stated),> 79 µM (inactive)
